# Test results from ChEMBL document CHEMBL1156099, “Pyrazolo[1,5-a]pyrimidine-based inhibitors of HCV polymerase” (Bioorg Med Chem Lett, 2009).
# The source made the active and inactive calls. The rule behind the calls is not given here.
# What was measured:
# [1] = Inhibition of HCV recombinant NS5B Cdelta21 RdRp expressed in Escherichia coli assessed as [3H]GTP incorporation after 3 hrs by scintillation proximity assay-based RNA polymerase assay; design: species or system Hepacivirus hominis
# Hepatitis C virus = experiment: Antiviral activity against HCV infected in human hepatoma cells by RNA replicon assay; type: functional, organism-based; conditions: Hepacivirus hominis
compound,measurement,setting,value
CC(C)CCc1c(-c2ccc(OCc3ccccc3)cc2)cnc2c(-c3nnn[nH]3)cnn12,IC50,[1]; read-out: IC50,4600 nM
CC(C)C[C@H](NC(=O)c1cnn2c(C3CCCCC3)c(-c3ccc(F)cc3)cnc12)C(=O)O,IC50,[1]; read-out: IC50,290 nM
COC(=O)c1cccc(COc2ccc(-c3cnc4c(-c5nnn[nH]5)cnn4c3C3CCCCC3)cc2)c1,IC50,[1]; read-out: IC50,220 nM
NC(=O)[C@H](Cc1c[nH]c2ccccc12)NC(=O)c1cnn2c(C3CCCCC3)c(-c3ccc(OCc4ccccc4)cc3)cnc12,IC50,[1]; read-out: IC50,90 nM
CC(C)Cc1c(-c2ccc(OCc3ccccc3)cc2)cnc2c(-c3nnn[nH]3)cnn12,IC50,[1]; read-out: IC50,6000 nM
O=C(O)c1cnn2c(C3CCCCC3)c(-c3ccc(F)cc3)cnc12,IC50,[1]; read-out: IC50,930 nM
same,Activity,Hepatitis C virus,Active
O=C(N[C@@H](Cc1c[nH]c2ccc(O)cc12)C(=O)O)c1cnn2c(C3CCCCC3)c(-c3ccc(F)cc3)cnc12,IC50,[1]; read-out: IC50,11 nM
CC(C)c1c(-c2ccc(OCc3ccccc3)cc2)cnc2c(-c3nnn[nH]3)cnn12,IC50,[1]; read-out: IC50,8600 nM
NC(=O)c1cnn2c(C3CCCCC3)c(-c3ccc(OCc4ccccc4)cc3)cnc12,IC50,[1],Not Active
O=C(O)c1cnn2c(C3CCCCC3)c(-c3ccc(OCc4ccccc4)cc3)cnc12,IC50,[1]; read-out: IC50,590 nM
same,Activity,Hepatitis C virus,Active
O=C(O)c1ccc(COc2ccc(-c3cnc4c(-c5nnn[nH]5)cnn4c3C3CCCCC3)cc2)cc1,IC50,[1]; read-out: IC50,42 nM
O=C(N[C@@H](Cc1ccc(O)cc1)C(=O)O)c1cnn2c(C3CCCCC3)c(-c3ccc(F)cc3)cnc12,IC50,[1]; read-out: IC50,20 nM
c1cc(-c2cnc3c(-c4nnn[nH]4)cnn3c2C2CCCCC2)ccc1OC1CCCCC1,IC50,[1]; read-out: IC50,400 nM
NC(=O)[C@H](Cc1ccc(O)cc1)NC(=O)c1cnn2c(C3CCCCC3)c(-c3ccc(F)cc3)cnc12,IC50,[1]; read-out: IC50,24 nM
c1ccc(COc2ccc(-c3cnc4c(-c5nnn[nH]5)cnn4c3C3CCCCC3)cc2)cc1,IC50,[1]; read-out: IC50,450 nM
same,Activity,Hepatitis C virus,Active
c1ccc(COc2ccc(-c3cnc4c(-c5ncn[nH]5)cnn4c3C3CCCCC3)cc2)cc1,IC50,[1]; read-out: IC50,5700 nM
O=C(N[C@H](Cc1ccc(O)cc1)C(=O)O)c1cnn2c(C3CCCCC3)c(-c3ccc(F)cc3)cnc12,IC50,[1]; read-out: IC50,960 nM
c1ccc(COc2ccc(-c3cnc4c(-c5nnn[nH]5)cnn4c3C3CC3)cc2)cc1,IC50,[1],Not Active
c1cc(COc2ccc(-c3cnc4c(-c5nnn[nH]5)cnn4c3C3CCCCC3)cc2)ccn1,IC50,[1]; read-out: IC50,710 nM
O=S1(=O)CCC(c2c(-c3ccc(OCc4ccccc4)cc3)cnc3c(-c4nnn[nH]4)cnn23)CC1,IC50,[1],Not Active
CS(=O)(=O)NC(=O)c1cnn2c(C3CCCCC3)c(-c3ccc(OCc4ccccc4)cc3)cnc12,IC50,[1]; read-out: IC50,1600 nM
c1ccc(COc2ccc(-c3cnc4c(-c5nnn[nH]5)cnn4c3-c3ccccc3)cc2)cc1,IC50,[1],Not Active
O=C(N[C@@H](Cc1ccccc1)C(=O)O)c1cnn2c(C3CCCCC3)c(-c3ccc(F)cc3)cnc12,IC50,[1]; read-out: IC50,2000 nM
c1ccc(-c2ccc(-c3cnc4c(-c5nnn[nH]5)cnn4c3C3CCCCC3)cc2)cc1,IC50,[1]; read-out: IC50,2800 nM
Cc1c(-c2ccc(OCc3ccccc3)cc2)cnc2c(-c3nnn[nH]3)cnn12,IC50,[1]; read-out: IC50,12500 nM
O=C(NO)c1cnn2c(C3CCCCC3)c(-c3ccc(OCc4ccccc4)cc3)cnc12,IC50,[1]; read-out: IC50,1900 nM
OCc1cnn2c(C3CCCCC3)c(-c3ccc(OCc4ccccc4)cc3)cnc12,IC50,[1]; read-out: IC50,12500 nM
O=C(O)c1ccc2c(c1)nc(-c1ccoc1)n2C1CCCCC1,IC50,[1]; read-out: IC50,1600 nM
CS(=O)(=O)c1cccc(-c2ccc(-c3cnc4c(-c5nnn[nH]5)cnn4c3C3CCCCC3)cc2)c1,IC50,[1]; read-out: IC50,930 nM
COc1cccc(Oc2ccc(-c3cnc4c(-c5nnn[nH]5)cnn4c3C3CCCCC3)cc2)c1,IC50,[1]; read-out: IC50,400 nM
Fc1ccc(-c2cnc3c(-c4nnn[nH]4)cnn3c2C2CCCCC2)cc1F,IC50,[1]; read-out: IC50,700 nM
COC(=O)c1ccc(COc2ccc(-c3cnc4c(-c5nnn[nH]5)cnn4c3C3CCCCC3)cc2)cc1,IC50,[1]; read-out: IC50,190 nM
c1ccc(COc2ccc(-c3cnc4c(-c5nnn[nH]5)cnn4c3C3CCSCC3)cc2)cc1,IC50,[1]; read-out: IC50,3400 nM
Cn1nnnc1-c1cnn2c(C3CCCCC3)c(-c3ccc(OCc4ccccc4)cc3)cnc12,IC50,[1]; read-out: IC50,50000 nM
O=C(O)c1ccc2c(c1)nc(-c1ccc(OCc3ccccc3)cc1)n2C1CCCCC1,IC50,[1]; read-out: IC50,530 nM
O=C(NS(=O)(=O)c1ccccc1)c1cnn2c(C3CCCCC3)c(-c3ccc(OCc4ccccc4)cc3)cnc12,IC50,[1]; read-out: IC50,760 nM
O=C(O)c1cc2nc(-c3ccc(Cl)cc3)cc(-c3ccc(Oc4ccccc4)cc3)n2n1,IC50,[1]; read-out: IC50,6000 nM
c1ccc(Oc2ccc(-c3cnc4c(-c5nnn[nH]5)cnn4c3C3CCCCC3)cc2)cc1,IC50,[1]; read-out: IC50,400 nM
CS(=O)(=O)c1cccc(Oc2ccc(-c3cnc4c(-c5nnn[nH]5)cnn4c3C3CCCCC3)cc2)c1,IC50,[1]; read-out: IC50,200 nM
NCCCC[C@H](NC(=O)c1cnn2c(C3CCCCC3)c(-c3ccc(F)cc3)cnc12)C(=O)O,IC50,[1]; read-out: IC50,480 nM
O=C(Nc1nnn[nH]1)c1cnn2c(C3CCCCC3)c(-c3ccc(OCc4ccccc4)cc3)cnc12,IC50,[1]; read-out: IC50,670 nM
c1ccc(COc2ccc(-c3cnc4c(-c5nnn[nH]5)cnn4c3C3CCOCC3)cc2)cc1,IC50,[1]; read-out: IC50,12000 nM
O=C(N[C@H](Cc1c[nH]c2ccccc12)C(=O)O)c1cnn2c(C3CCCCC3)c(-c3ccc(F)cc3)cnc12,IC50,[1]; read-out: IC50,450 nM
O=C(N[C@@H](Cc1c[nH]c2ccccc12)C(=O)O)c1cnn2c(C3CCCCC3)c(-c3ccc(F)cc3)cnc12,IC50,[1]; read-out: IC50,20 nM
FC(F)(F)c1cccc(COc2ccc(-c3cnc4c(-c5nnn[nH]5)cnn4c3C3CCCCC3)cc2)c1,IC50,[1]; read-out: IC50,400 nM
COc1cccc(COc2ccc(-c3cnc4c(-c5nnn[nH]5)cnn4c3C3CCCCC3)cc2)c1,IC50,[1]; read-out: IC50,600 nM
